Measurements taken from patent US20220017486A1, “DOCK1-INHIBITING COMPOUND AND USE THEREOF” (KYUSHU UNIVERSITY, NATIONAL UNIVERSITY CORPORATION, priority 2018, published 2022).

Molecular target: T1, DOCK1 (DHR-2 domain) (Homo sapiens, UniProt Q14185)
T1 construct: polypeptide fragments corresponding to the DHR-2 domain of DOCK1 or DOCK2 from mice and humans; Histidine-SUMO (N); made in house; host or cells: E. coli Arctic express (DE3)
T1 sequence (Q14185 1207-1617 limits assumed): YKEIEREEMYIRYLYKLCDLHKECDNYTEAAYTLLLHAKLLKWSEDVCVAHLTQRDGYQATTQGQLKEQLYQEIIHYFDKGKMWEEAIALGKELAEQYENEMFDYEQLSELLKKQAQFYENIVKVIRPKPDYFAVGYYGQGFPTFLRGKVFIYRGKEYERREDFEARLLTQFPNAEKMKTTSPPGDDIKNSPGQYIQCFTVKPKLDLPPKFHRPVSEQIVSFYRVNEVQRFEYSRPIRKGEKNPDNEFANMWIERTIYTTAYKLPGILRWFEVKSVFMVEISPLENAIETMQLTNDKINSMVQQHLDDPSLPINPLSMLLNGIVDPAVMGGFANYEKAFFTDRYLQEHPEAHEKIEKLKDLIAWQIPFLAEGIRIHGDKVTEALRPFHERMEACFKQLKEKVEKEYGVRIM
Test: In vitro GEF assay: Rac activation by DOCK1 DHR-2 domain
Assay type: biochemical, mice and humans
Conditions: in words; for selective inhibitory activity against DOCK1 versus DOCK2: GEF assay DOCK1 vs DOCK2 DHR-2 domain
Procedure: DOCK1 and DOCK2, i.e., DOCK-A subfamily members, both activate Rac by catalyzing the GTP-GDP exchange reaction for Rac via their DHR-2 domains. Therefore, in this Pharmacological Test, the inhibitory effect of the compounds of the present invention on Rac activation by DOCK1 or DOCK2 was assessed in an in vitro GEF assay by using polypeptide fragments corresponding to the DHR-2 domain of DOCK1 or DOCK2 from mice and humans. The in vitro GEF assay was performed using a labeled GTP (Bodipy-FL-GTP, Invitrogen), which has a property of increasing the fluorescence intensity when bound to Rac.
The polypeptide fragments corresponding to the DHR-2 domain of DOCK1 or DOCK2 were prepared by expression in E. coli Arctic express (DE3) cells as N-terminal. Histidine-SUMO tag-fused recombinant proteins, followed by purification by affinity column chromatography on nickel-NTA columns.
Rac was prepared by expression in E. coli BL21 (DE3) cells as an N-terminal GST tag-fused recombinant protein, followed by purification by affinity column chromatography on glutathione-Sepharose columns.
Each of the polypeptide fragments corresponding to the DHR-2 domain of DOCK1 or DOCK2, and a predetermined concentration of each test compound (the compounds of the present invention: 33 types of compounds; and comparative compound: TBOPP) dissolved in DMSO were incubated in a reaction solution A (pH 7.0), which contained 20 mM of MES-NaOH, 150 mM of NaCl, 10 mM of MgCl2, and 20 μM of GDP for 20 minutes at room temperature while being shielded from light to thus prepare GEF pretreated products. The final concentration of DMSO was adjusted to 1 mass % in all of the test samples. For a control test, a GEF pretreated product (control) was prepared by incubation in the same manner using DMSO with no test compounds, instead of the DMSO used above in which each test compound was dissolved.
Separately, Rac was added to the reaction solution A (pH 7.0) to a concentration of 15 μM, and was allowed to stand on for 30 min to form a GDP-Rac complex. Bodipy-FL-GTP was added to a concentration of 3.6 μM to 100 μL of the reaction solution A that contained the thus-prepared GDP-Rac complex, and equilibrated at 30° C. for 2 minutes. After equilibration, 50 μL of the GEF pretreated product prepared as described above was added and reacted at 30° C.
Changes in fluorescence intensity of Bodipy-FL-GTP in the reaction solutions were monitored using an EnSpire spectrofluorometer (Perkin Elmer) (excitation wavelength: 488 nm, fluorescence wavelength: 514 nm). The measured values were corrected so that the fluorescence intensity at the beginning of the reaction (0 sec) was 0. Then, an approximate curve (hyperbola) was obtained by plotting the calculated correction values on the y-axis and the time (t) on the x-axis using GraphPad Prism5 (GraphPad software), and the slope at t=0 to 10 seconds was defined as the initial velocity of the guanine nucleotide exchange reaction. The IC50 value was calculated taking the initial reaction velocity of the control, to which only a solvent (DMSO) was added, as 100%.
Based on the obtained results, columns A and B of FIG. 1, FIG. 2, FIG. 3-1, and FIG. 3-2 show the results evaluating the inhibitory effect on Rac activation by DOCK1 (DHR-2 domain) (IC50 value), and DOCK1-selective inhibitory effect (DOCK1/DOCK2 selectivity) of each test compound. The inhibitory effect on Rac activation by DOCK1 (DHR-2 domain) (IC50 value) was determined from the reaction inhibition curve plotted using values of Rac activation by the DOCK1 DHR-2 domain in the presence of various concentrations of the test compounds, taking the values of the control as 100%. […]

DOCK1-inhibiting activity compared with TBOPP (GEF assay)	Structure (SMILES)	selective inhibitory activity against DOCK1 versus DOCK2	selective inhibitory activity against DOCK1 compared to TBOPP (GEF assay)
	O=C(Cn1cc(S(=O)(=O)N2CCC(c3ccc(-c4ccc5c(c4)Cc4ccccc4-5)cc3)CC2)ccc1=O)c1ccc(-c2cccc(C(F)(F)F)c2)cc1 [KS-46, 5-((4-(4-(9H-fluoren-2-yl)phenyl)piperidin-1-yl)sulfonyl)-1-(2-oxo-2-(3′-(trifluoromethyl)-[1,1′-biphenyl]-4-yl)ethyl)pyridin-2(1H)-one]	higher selective inhibitory activity against DOCK1 than against DOCK2	
	O=C(Cn1cc(S(=O)(=O)N2CCCC2)ccc1=O)c1ccc(-c2cccc(C(F)(F)F)c2)cc1OCCc1ccccc1 [AK-24, 1-(2-oxo-2-(3-phenethoxy-3′-(trifluoromethyl)-[1,1′-biphenyl]-4-yl)ethyl)-5-(pyrrolidin-1-yl-sulfonyl)pyridin-2(1H)-one]	higher selective inhibitory activity against DOCK1 than against DOCK2	
	CN(C)C(=O)c1cc(S(=O)(=O)N2CCCC2)cn1CC(=O)c1ccc(-c2cccc(C(F)(F)F)c2)cc1 [RT-23, N,N-dimethyl-1-(2-oxo-2-(3′-(trifluoromethyl)-[1,1′-biphenyl]-4-yl)ethyl)-4-(pyrrolidin-1-yl-sulfonyl)-1H-pyrrole-2-carboxamide]	higher selective inhibitory activity against DOCK1 than against DOCK2	
	CC1(C)Oc2cc(-c3cccc(C(F)(F)F)c3)ccc2C(Cn2cc(S(=O)(=O)N3CCCC3)ccc2=O)O1 (stereo not shown) [AK-17, 1-((2,2-dimethyl-7-(3-(trifluoromethyl)phenyl)-4H-benzo[d][1,3]dioxin-4-yl)methyl)-5-(pyrrolidin-1-yl-sulfonyl)pyridin-2(1H)-one]	higher selective inhibitory activity against DOCK1 than against DOCK2	
	O=C(Cn1cc(S(=O)(=O)N2CCC(c3ccc(-c4c5ccccc5cc5ccccc45)cc3)CC2)ccc1=O)c1ccc(-c2cccc(C(F)(F)F)c2)cc1 [KS-47, 5-((4-(4-(anthracen-9-yl)phenyl)piperidin-1-yl)sulfonyl)-1-(2-oxo-2-(3′-(trifluoromethyl)-[1,1′-biphenyl]-4-yl)ethyl)pyridin-2(1H)-one]	higher selective inhibitory activity against DOCK1 than against DOCK2	
	CC(=O)Oc1cc(-c2ccc(-c3cccc(C(F)(F)F)c3)cc2)cn2cc(S(=O)(=O)N3CCCC3)cc12 [HS-20, 2-(pyrrolidin-1-yl-sulfonyl)-6-(3′-(trifluoromethyl)-[1,1′-biphenyl]-4-yl)-indolizin-8-yl acetate]	higher selective inhibitory activity against DOCK1 than against DOCK2	
slightly lower DOCK1-inhibiting activity	O=c1ccc(S(=O)(=O)N2CCCC2)cn1CC(O)c1ccc(-c2cccc(C(F)(F)F)c2)cc1O (stereo not shown) [AK-16, 1-(2-hydroxy-2-(3-hydroxy-3′-(trifluoromethyl)-[1,1′-biphenyl]-4-yl)ethyl)-5-(pyrrolidin-1-yl-sulfonyl)pyridin-2(1H)-one]		higher selective inhibitory activity against DOCK1
	O=C(Cn1cc(S(=O)(=O)N2CCCC2)ccc1=O)c1ccc(-c2cccc(C(F)(F)F)c2)cc1O [AK-15, 1-(2-(3-hydroxy-3′-(trifluoromethyl)-[1,1′-biphenyl]-4-yl)-2-oxoethyl)-5-(pyrrolidin-1-yl-sulfonyl)pyridin-2(1H)-one]	higher selective inhibitory activity against DOCK1 than against DOCK2	
	O=C(Cn1cc(S(=O)(=O)N2CCC(c3ccc(-c4ccccc4)cc3)CC2)ccc1=O)c1ccc(-c2cccc(C(F)(F)F)c2)cc1 [KS-43, 5-((4-([1,1′-biphenyl]-4-yl)piperidin-1-yl)sulfonyl)-1-(2-oxo-2-(3′-(trifluoromethyl)-[1,1′-biphenyl]-4-yl)ethyl)pyridin-2(1H)-one]	higher selective inhibitory activity against DOCK1 than against DOCK2	
